Assay: Biodistribution studies in normal female Wistar rats
Type: in vivo, rat
Settings: for % ID blood / SUV blood / % ID bone / SUV bone / % ID carcass / % ID cerebellum / SUV cerebellum / SUV cerebrum + cerebellum / % ID cerebrum total / % ID cortex / SUV cortex / % ID heart / % ID hippocampus / SUV hippocampus / % ID intestines / % ID kidneys / % ID liver / % ID lungs / % ID muscle / SUV muscle / % ID rest of cerebrum / SUV rest of cerebrum / % ID spleen + pancreas / % ID stomach / % ID striatum / SUV striatum / % ID urine / SUV whole cerebrum: mean n=3; for SUV cerebrum + cerebellum / Total brain uptake: cerebrum + cerebellum; for Total brain uptake: n=3
Method: High-performance liquid chromatography (HPLC) analysis was performed on a LaChrom Elite® HPLC system (Hitachi, Armstadt, Germany) connected to a UV spectrometer. For the analysis of radiolabeled compounds, the HPLC eluate, after passage through the UV detector, was led over a shielded 3-inch NaI(Tl) scintillation detector connected to a single channel analyser (Gabi box, Raytest, Straubenhardt, Germany). The output signal was recorded and analysed using a GINA Star data acquisition system (Raytest, Straubenhardt, Germany). Radioactivity in samples of biodistribution studies was quantified using an automated gamma counter equipped with a 3-inch NaI(Tl) well crystal coupled to a multichannel analyser (Wallac 2480 Wizard, Wallac, Turku, Finland). Results were corrected for background radiation, physical decay and counter dead time. Animals were housed in individually ventilated cages in a thermoregulated (˜22° C.), humidity-controlled facility under a 12 h/12 h light/dark cycle with access to food and water ad libitum. All animal experiments were conducted according to the Belgian code of practice for the care and use of animals, after approval from the local University Ethics Committee for Animals.
Biodistribution studies of [^11C]-2 and [^11C]-1 were carried out in healthy female Wister rats (body weight 185-220 g) at 2 min, 30 min and 60 min post injection (p.i.) (n=3/time point). Rats were injected with about 18 MBq of the tracer via a tail vein under anesthesia (2.5% isoflurane in O2 at 1 L/min flow rate) and sacrificed by decapitation at the above specified time points. Blood and major organs were collected in tared tubes and weighed. The radioactivity in blood, organs and other body parts was measured using an automated gamma counter. For calculation of total blood radioactivity, blood mass was assumed to be 7% of the body mass. For calculation of total muscle and total bone radioactivity, muscle and bone mass were assumed to be 40% and 12% of the body mass, respectively.

**Q.** With `C[C@H]1CN(c2ccc(C(F)(F)F)cc2)C(=O)c2c(-c3ccnc(N[11CH3])c3)cnn21` [[^11C]-2] as the compound, how does the “2 min - to- 30 min wash-out ratio” value (blood) read?
**A.** 1.75

**Q.** And the “% ID blood” value (blood, 2 min p.i.)?
**A.** 4.9 % ID

**Q.** What about the SUV blood (blood, 2 min p.i.) of the same compound?
**A.** 0.70 SUV

**Q.** What about the “% ID blood” value (blood, 30 min p.i.) of the same compound?
**A.** 2.8 % ID

**Q.** What about the SUV blood (blood, 30 min p.i.) of the same compound?
**A.** 0.40 SUV

**Q.** What about the “% ID blood” value (blood, 60 min p.i.) of the same compound?
**A.** 2.0 % ID

**Q.** And the SUV blood (blood, 60 min p.i.)?
**A.** 0.29 SUV

**Q.** And the “2 min - to- 30 min wash-out ratio” value (bone)?
**A.** 1.34

**Q.** And the “% ID bone” value (bone, 2 min p.i.)?
**A.** 7.0 % ID

**Q.** What about the SUV bone (bone, 2 min p.i.) of the same compound?
**A.** 0.59 SUV

**Q.** What about the “% ID bone” value (bone, 30 min p.i.) of the same compound?
**A.** 4.9 % ID

**Q.** And the SUV bone (bone, 30 min p.i.)?
**A.** 0.44 SUV

**Q.** What about the “% ID bone” value (bone, 60 min p.i.) of the same compound?
**A.** 4.2 % ID

**Q.** And the SUV bone (bone, 60 min p.i.)?
**A.** 0.37 SUV

**Q.** And the “% ID carcass” value (2 min p.i.)?
**A.** 39.5 % ID

**Q.** What about the “% ID carcass” value (30 min p.i.) of the same compound?
**A.** 49.9 % ID

**Q.** What about the “% ID carcass” value (60 min p.i.) of the same compound?
**A.** 44.8 % ID

**Q.** What about the “2 min - to- 30 min wash-out ratio” value (cerebellum) of the same compound?
**A.** 2.85

**Q.** What about the “% ID cerebellum” value (cerebellum, 2 min p.i.) of the same compound?
**A.** 0.279 % ID

**Q.** What about the SUV cerebellum (cerebellum, 2 min p.i.) of the same compound?
**A.** 1.78 SUV

**Q.** And the “% ID cerebellum” value (cerebellum, 30 min p.i.)?
**A.** 0.084 % ID

**Q.** And the SUV cerebellum (cerebellum, 30 min p.i.)?
**A.** 0.62 SUV

**Q.** And the “% ID cerebellum” value (cerebellum, 60 min p.i.)?
**A.** 0.058 % ID

**Q.** And the SUV cerebellum (cerebellum, 60 min p.i.)?
**A.** 0.45 SUV

**Q.** What about the “SUV cerebrum + cerebellum” value (2 min p.i.) of the same compound?
**A.** 1.80 SUV

**Q.** And the Total brain uptake (2 min p.i.)?
**A.** 1.4 % ID

**Q.** And the Total brain uptake (2 min p.i., listed as [^11C-2])?
**A.** 1.44 ± 0.24 % ID

**Q.** What about the “SUV cerebrum + cerebellum” value (30 min p.i.) of the same compound?
**A.** 0.67 SUV

**Q.** And the Total brain uptake (30 min p.i.)?
**A.** 0.50 ± 0.05 % ID

**Q.** What about the “SUV cerebrum + cerebellum” value (60 min p.i.) of the same compound?
**A.** 0.49 SUV

**Q.** What about the Total brain uptake (60 min p.i.) of the same compound?
**A.** 0.38 ± 0.03 % ID

**Q.** And the “% ID cerebrum total” value (2 min p.i.)?
**A.** 1.153 % ID

**Q.** What about the “% ID cerebrum total” value (30 min p.i.) of the same compound?
**A.** 0.408 % ID

**Q.** What about the “% ID cerebrum total” value (60 min p.i.) of the same compound?
**A.** 0.316 % ID

**Q.** And the “2 min - to- 30 min wash-out ratio” value (cortex)?
**A.** 3.04

**Q.** What about the “% ID cortex” value (cortex, 2 min p.i.) of the same compound?
**A.** 0.064 % ID

**Q.** And the SUV cortex (cortex, 2 min p.i.)?
**A.** 2.23 SUV

**Q.** What about the “% ID cortex” value (cortex, 30 min p.i.) of the same compound?
**A.** 0.024 % ID

**Q.** And the SUV cortex (cortex, 30 min p.i.)?
**A.** 0.74 SUV

**Q.** And the “% ID cortex” value (cortex, 60 min p.i.)?
**A.** 0.014 % ID

**Q.** And the SUV cortex (cortex, 60 min p.i.)?
**A.** 0.58 SUV

**Q.** What about the “% ID heart” value (2 min p.i.) of the same compound?
**A.** 1.0 % ID

**Q.** What about the “% ID heart” value (30 min p.i.) of the same compound?
**A.** 0.4 % ID

**Q.** And the “% ID heart” value (60 min p.i.)?
**A.** 0.3 % ID

**Q.** What about the “2 min - to- 30 min wash-out ratio” value (hippocampus) of the same compound?
**A.** 2.31

**Q.** What about the “% ID hippocampus” value (hippocampus, 2 min p.i.) of the same compound?
**A.** 0.046 % ID

**Q.** And the SUV hippocampus (hippocampus, 2 min p.i.)?
**A.** 1.49 SUV

**Q.** What about the “% ID hippocampus” value (hippocampus, 30 min p.i.) of the same compound?
**A.** 0.018 % ID

**Q.** What about the SUV hippocampus (hippocampus, 30 min p.i.) of the same compound?
**A.** 0.64 SUV

**Q.** What about the “% ID hippocampus” value (hippocampus, 60 min p.i.) of the same compound?
**A.** 0.016 % ID

**Q.** What about the SUV hippocampus (hippocampus, 60 min p.i.) of the same compound?
**A.** 0.49 SUV

**Q.** And the “% ID intestines” value (2 min p.i.)?
**A.** 12.2 % ID

**Q.** What about the “% ID intestines” value (30 min p.i.) of the same compound?
**A.** 19.4 % ID

**Q.** What about the “% ID intestines” value (60 min p.i.) of the same compound?
**A.** 24.2 % ID

**Q.** What about the “% ID kidneys” value (2 min p.i.) of the same compound?
**A.** 5.3 % ID

**Q.** What about the “% ID kidneys” value (30 min p.i.) of the same compound?
**A.** 2.2 % ID

**Q.** What about the “% ID kidneys” value (60 min p.i.) of the same compound?
**A.** 1.6 % ID

**Q.** What about the “% ID liver” value (2 min p.i.) of the same compound?
**A.** 26.5 % ID

**Q.** And the “% ID liver” value (30 min p.i.)?
**A.** 16.0 % ID

**Q.** And the “% ID liver” value (60 min p.i.)?
**A.** 11.9 % ID

**Q.** What about the “% ID lungs” value (2 min p.i.) of the same compound?
**A.** 6.8 % ID

**Q.** What about the “% ID lungs” value (30 min p.i.) of the same compound?
**A.** 1.8 % ID

**Q.** What about the “% ID lungs” value (60 min p.i.) of the same compound?
**A.** 1.3 % ID

**Q.** And the “2 min - to- 30 min wash-out ratio” value (muscle)?
**A.** 0.46

**Q.** And the “% ID muscle” value (muscle, 2 min p.i.)?
**A.** 11.1 % ID

**Q.** What about the SUV muscle (muscle, 2 min p.i.) of the same compound?
**A.** 0.26 SUV

**Q.** What about the “% ID muscle” value (muscle, 30 min p.i.) of the same compound?
**A.** 24.1 % ID

**Q.** What about the SUV muscle (muscle, 30 min p.i.) of the same compound?
**A.** 0.56 SUV

**Q.** And the “% ID muscle” value (muscle, 60 min p.i.)?
**A.** 21.4 % ID

**Q.** What about the SUV muscle (muscle, 60 min p.i.) of the same compound?
**A.** 0.48 SUV

**Q.** And the “2 min - to- 30 min wash-out ratio” value (rest of cerebrum)?
**A.** 2.71

**Q.** And the “% ID rest of cerebrum” value (rest of cerebrum, 2 min p.i.)?
**A.** 0.944 % ID

**Q.** What about the “SUV rest of cerebrum” value (rest of cerebrum, 2 min p.i.) of the same compound?
**A.** 1.79 SUV

**Q.** What about the “% ID rest of cerebrum” value (rest of cerebrum, 30 min p.i.) of the same compound?
**A.** 0.323 % ID

**Q.** What about the “SUV rest of cerebrum” value (rest of cerebrum, 30 min p.i.) of the same compound?
**A.** 0.66 SUV

**Q.** What about the “% ID rest of cerebrum” value (rest of cerebrum, 60 min p.i.) of the same compound?
**A.** 0.256 % ID

**Q.** What about the “SUV rest of cerebrum” value (rest of cerebrum, 60 min p.i.) of the same compound?
**A.** 0.49 SUV

**Q.** And the “% ID spleen + pancreas” value (2 min p.i.)?
**A.** 2.4 % ID

**Q.** And the “% ID spleen + pancreas” value (30 min p.i.)?
**A.** 1.4 % ID

**Q.** And the “% ID spleen + pancreas” value (60 min p.i.)?
**A.** 1.1 % ID

**Q.** What about the “% ID stomach” value (2 min p.i.) of the same compound?
**A.** 2.3 % ID

**Q.** And the “% ID stomach” value (30 min p.i.)?
**A.** 6.5 % ID

**Q.** And the “% ID stomach” value (60 min p.i.)?
**A.** 12.3 % ID

**Q.** What about the “2 min - to- 30 min wash-out ratio” value (striatum) of the same compound?
**A.** 2.59

**Q.** And the “% ID striatum” value (striatum, 2 min p.i.)?
**A.** 0.099 % ID

**Q.** What about the SUV striatum (striatum, 2 min p.i.) of the same compound?
**A.** 1.68 SUV

**Q.** What about the “% ID striatum” value (striatum, 30 min p.i.) of the same compound?
**A.** 0.043 % ID

**Q.** And the SUV striatum (striatum, 30 min p.i.)?
**A.** 0.65 SUV

**Q.** And the “% ID striatum” value (striatum, 60 min p.i.)?
**A.** 0.030 % ID

**Q.** And the SUV striatum (striatum, 60 min p.i.)?
**A.** 0.49 SUV

**Q.** What about the “% ID urine” value (2 min p.i.) of the same compound?
**A.** 0.1 % ID

**Q.** And the “% ID urine” value (30 min p.i.)?
**A.** 0.5 % ID

**Q.** And the “% ID urine” value (60 min p.i.)?
**A.** 11 % ID

**Q.** What about the “2 min - to- 30 min wash-out ratio” value (whole cerebrum) of the same compound?
**A.** 2.70

**Q.** And the SUV whole cerebrum (whole cerebrum, 2 min p.i.)?
**A.** 1.79 SUV

**Q.** What about the SUV whole cerebrum (whole cerebrum, 30 min p.i.) of the same compound?
**A.** 0.66 SUV

**Q.** And the SUV whole cerebrum (whole cerebrum, 60 min p.i.)?
**A.** 0.49 SUV

Source: patent US10967078B2, “Radiolabelled mGluR2 PET ligands” (Janssen Pharmaceutica NV, priority 2014, dated 2021)
